# Source: patent publication US20220288137A1, “Bifidobacterium Longum Subsp. Infantis CCFM687 and Fermented Food and Application Thereof” (Jiangnan University, priority 2018, published 2022)
# Tested on: depressed mice (chronic unpredictable stress depression mouse model)
# Test: Butyric acid content in the caecum of depressed mice (GC-MS)
# Type: in vivo, C57BL/6J mice
# Conditions: 6 weeks intervention (CCFM687 10^9 cfu or fluoxetine 10 mg/kg), GC-MS of cecal content (FIG. 3)
# Procedure: 32 6-week-old male C57BL/6J mice were selected. After one week of adaptation to the environment, the mice were randomly divided into four groups according to body weight: a control group, a model group, a fluoxetine intervention group, and a CCFM687 intervention group, each containing 8 mice.
# Chronic unpredictable stress depression mouse model: 1-2 kinds of stimuli were randomly performed every day, and the performance time of stimuli every day was determined randomly to avoid the circadian rhythm. Each method was used for not more than three times, and the stimuli were performed for five weeks. The stimuli include: (1) fasting for 24 h; (2) water deprivation+empty bottle stimulus for 24 h; (3) tail pinching for 3 min; (4) wet padding for 24 h; (5) immobilization for 1-2 h; (6) 45° tilted cage for 24 h; (7) continuous lighting for 24 h; (8) no padding for 24 h; (9) forced swim for 15 min; and (10) separation for 24 h. […]
# The mice in Example 2 were euthanized at the sixth weekend, and the content of the cecum of the mice was collected. […] 500 μL of supernatant was taken into a gas phase vial, and the contents of short-chain fatty acids (acetic acid, propionic acid, isobutyric acid, butyric acid and isovaleric acid) were measured by GC-MS. […] The analysis adopted a full scan mode, and the concentration of each short-chain fatty acid (μmol/g) was calculated by an external standard method. […]
smiles,measurement,value
CNCCC(Oc1ccc(C(F)(F)F)cc1)c1ccccc1 (stereo not shown) [fluoxetine],butyric acid content in the caecum / intestine,has no regulating effect on the butyric acid content
